These results are taken from ChEMBL document CHEMBL3045120, “Synthesis, characterization, and evaluation of some novel 4(3H)-quinazolinone derivatives as anti-inflammatory and analgesic agents” (2013).

What all share (format): functional
What all share (design): scale not given: the % may be the effect or the level left

Test [1] concerns Rattus norvegicus. In words: Analgesic activity inRattus norvegicus albino (rat) assessed as reduction of minimum electric shock-induced pain at 100 mg/kg after 2 hr relative to control.
For test [2], the system named is Rattus norvegicus. In words: Analgesic activity inRattus norvegicus albino (rat) assessed as reduction of minimum electric shock-induced pain at 100 mg/kg after 1 hr relative to control.
The test system of test [3] is Rattus norvegicus. Nature of the test: Anti-inflammatory activity inRattus norvegicus albino (rat) assessed as reduction of carrageenan-induced paw edema at 100 mg/kg, po administered 1 hr prior to carrageenan challenge measured after 3 hr by mercury plethysmographic analysis relative to control.
For test [4], the system named is Rattus norvegicus. In words: Anti-inflammatory activity inRattus norvegicus albino (rat) assessed as reduction of cotton pellet-induced dry weight of granuloma at 100 mg/kg, po measured after 7 days relative to control.
Test [5] deals with Rattus norvegicus. In words: Analgesic activity inRattus norvegicus albino (rat) assessed as reduction of minimum electric shock-induced pain at 5 mg/kg after 2 hr relative to control.
The test system of test [6] is Rattus norvegicus. Nature of the test: Analgesic activity inRattus norvegicus albino (rat) assessed as reduction of minimum electric shock-induced pain at 5 mg/kg after 1 hr relative to control.
Test [7] relates to Rattus norvegicus. Nature of the test: Anti-inflammatory activity inRattus norvegicus albino (rat) assessed as reduction of carrageenan-induced paw edema at 5 mg/kg, po administered 1 hr prior to carrageenan challenge measured after 3 hr by mercury plethysmographic analysis relative to control.
Test [8] deals with Rattus norvegicus. Nature of the test: Anti-inflammatory activity inRattus norvegicus albino (rat) assessed as reduction of cotton pellet-induced dry weight of granuloma at 5 mg/kg, po measured after 7 days relative to control.

With `O=C1OC(c2ccccc2)=N/C1=C/c1nc2ccc(I)cc2c(=O)n1-c1ccc(Cl)cc1`, the Activity in the test on Rattus norvegicus [1] amounted to 63.3%; in the test on Rattus norvegicus [2], 60.9%; with Rattus norvegicus [3], 49.6%; in the test on Rattus norvegicus [4], 72.6%.
The corresponding values for `CCOc1ccccc1-n1c(N)c(C#N)c(-c2nc3ccc(I)cc3c(=O)n2-c2ccc(F)cc2)c(C#N)c1=O` are 53.1%, 45.1%, 20.7% and 52.2%.
The corresponding values for `O=c1c2cc(I)ccc2nc(C2CC(c3ccccc3)=NN2)n1-c1ccc(Cl)cc1` (centres undefined) are 59.2%, 55.4%, 50.4% and 71.9%.
`O=C(/C=C/c1nc2ccc(I)cc2c(=O)n1-c1ccc(F)cc1)c1ccccc1`: the Activity with Rattus norvegicus [1] came to 54.1%; in the test on Rattus norvegicus [2] it was 46.9%; in the test on Rattus norvegicus [3], 28.3%; in the test with Rattus norvegicus [4], 41.8%.
In the case of `CC(=O)c1c(-c2nc3ccc(I)cc3c(=O)n2-c2ccc(Cl)cc2)[nH][nH]c1=O`, the Activity is on record as 61.9% with Rattus norvegicus [1], 47.9% in the test with Rattus norvegicus [2], 48.3% with Rattus norvegicus [3] and 72.2% in the test with Rattus norvegicus [4].
The matching figures for `Cc1c(/N=C/c2nc3ccc(I)cc3c(=O)n2-c2ccc(F)cc2)c(=O)n(-c2ccccc2)n1C`: 65.6%, 64.8%, 53.5% and 73.5%.
The corresponding values for `Cc1c(/N=C/c2nc3ccc(I)cc3c(=O)n2-c2ccc(Cl)cc2)c(=O)n(-c2ccccc2)n1C` are 54.2%, 53.7%, 47.4% and 60.7%.
The matching figures for `O=C1NC(=S)S/C1=C/c1nc2ccc(I)cc2c(=O)n1-c1ccc(F)cc1`: 61.3%, 57.9%, 44.8% and 67.3%.
Consider `O=C(N/N=C/c1nc2ccc(I)cc2c(=O)n1-c1ccc(F)cc1)c1ccncc1`, for which the Activity was determined as 64.3% in the test on Rattus norvegicus [1], 57.1% in the test on Rattus norvegicus [2], 45.3% in the test with Rattus norvegicus [3] and 66.7% in the test with Rattus norvegicus [4].
The matching figures for `CCOc1ccccc1/N=C/c1nc2ccc(I)cc2c(=O)n1-c1ccc(F)cc1`: 56.1%, 39.3%, 38.9% and 50.2%.
On to `Cc1c(N(C)CS(=O)(=O)[O-])c(=O)n(-c2ccccc2)n1C.[Na+]` [DIPYRONE SODIUM], for which the figures for the Activity in the test on Rattus norvegicus [5] and in the test with Rattus norvegicus [6] were 85.7% and 82.9%, respectively.
On to `COc1ccc2c(c1)c(CC(=O)O)c(C)n2C(=O)c1ccc(Cl)cc1` [INDOMETHACIN], for which the Activity with Rattus norvegicus [7] is recorded as 78.3%; with Rattus norvegicus [8], 75.2%.
